The values that follow come from US10647747B2, “Cyclosporin derivatives and uses thereof” (S&T Global Inc., priority 2010, dated 2020).

Usually EC50 stands for the concentration giving half of the maximal effect.

For this experiment, the system named is HCV replicon in cell line ET (luc-ubi-neo/ET), Huh7 human hepatoma. In words: HCV subgenomic replicon assay, luciferase end point. The class given is cell-based. Conditions: read-out: Antiviral activity EC50.
Where [1] appears, read: HCV subgenomic replicon, cell line ET (luc-ubi-neo/ET) Huh7, luciferase end point.
Where [2] appears, read: Table 12, HCV replicon luciferase.
Setting [3] is: Table 13, HCV replicon luciferase.
Where [4] appears, read: Table 16, HCV replicon luciferase.
Setting [5] is: Table 14, HCV replicon luciferase.
The mark [6] stands for this setting: Hepatitis C virus, Huh-7, Table 14, HCV replicon luciferase.

Like-named read-outs stand apart in the source and are kept apart here. *1 amine or outer side, *2 acyl side, *3 side chain or, on linkers, in order; H or OH if unused. Where a SMILES comes first, the peptide text is derived from it. [ ]: non-standard residue; d: D form. The star is where a group is joined. MeBmt = C/C=C/C[C@@H](C)[C@@H](O)[C@H](NC)C(=O)O; X8 = CCN(CC)CCS[C@@H](C(=O)[*:2])N(C)[*:1]; X6 = CCN(CC)CCS[C@H](C(=O)[*:2])N(C)[*:1]; X3 = CC=CCC(C)C(O)C(C(=O)[*:2])N(C)[*:1]; X5 = CSCOC(C)(C)CC(C(=O)[*:2])N(C)[*:1]; X7 = CN(C(SCCCN1CCOCC1)C(=O)[*:2])[*:1]; X4 = CCN(CC)CCSC(C(=O)[*:2])N(C)[*:1]; NMeL = CN[CH](CC(C)C)C(=O)O; NMeV = CN[CH](C(=O)O)C(C)C; Et2NCH2CH2 = CCN(CC)CC*; NMeC = CN[CH](CS)C(=O)O; Abu = CC[CH](N)C(=O)O

On to `CC=CCC(C)C(O)C1C(=O)NC(CC)C(=O)N(C)C(CSCCN(CC)CC)C(=O)N(C)C(C(C)C)C(=O)NC(C(C)C)C(=O)N(C)C(CC(C)C)C(=O)NC(C)C(=O)NC(C)C(=O)N(C)C(CC(C)C)C(=O)N(C)C(CC(C)C)C(=O)N(C)C(C(C)C)C(=O)N1C` [[(S)-(2-(N,N-Diethylamino)ethylthio)methyl-Sar]-3-[N-MeVal]-4-cyclosporin] (cyclo([X3][Abu][NMeC](Et2NCH2CH2)[NMeV]V[NMeL]AA[NMeL][NMeL][NMeV]); configuration not given here), for which the EC50 under setting [1] was 140 nM.

In the case of `C/C=C/C[C@@H](C)[C@@H](O)[C@H]1C(=O)N[C@@H](CC)C(=O)N(C)[C@H](SCCN(CC)CC)C(=O)N(C)[C@@H](C(C)C)C(=O)N[C@@H](C(C)C)C(=O)N(C)[C@@H](CC(C)C)C(=O)N[C@@H](C)C(=O)N[C@H](C)C(=O)N(C)[C@@H](CC(C)C)C(=O)N(C)[C@@H](CC(C)C)C(=O)N(C)[C@@H](C(C)C)C(=O)N1C` [(R)-2-(N,N-Diethylamino)ethylthio-Sar]-3-[N-MeVal]-4-cyclosporin] (cyclo(A[dA][NMeL][NMeL][NMeV][MeBmt][Abu][X6][NMeV]V[NMeL])), under setting [2], the EC50 is 3660 nM.

Take `CC=CCC(C)C(O)C1C(=O)NC(CC)C(=O)N(C)CC(=O)N(C)C(CO)C(=O)NC(C(C)C)C(=O)N(C)C(CC(C)C)C(=O)NC(C)C(=O)NC(C)C(=O)N(C)C(CC(C)C)C(=O)N(C)C(CC(C)C)C(=O)N(C)C(C(C)C)C(=O)N1C` (stereo not drawn) [[N-MeSer]-4-cyclosporin]: the EC50 under setting [3] was found to be 560 nM.

For the compound `C/C=C/C[C@@H](C)[C@@H](O)[C@H]1C(=O)N[C@@H](CC)C(=O)N(C)[C@H](CSCCCN2CCN(C)CC2)C(=O)N(C)[C@@H](CC(C)(C)O)C(=O)N[C@@H](C(C)C)C(=O)N(C)[C@@H](CC(C)C)C(=O)N[C@@H](C)C(=O)N[C@H](C)C(=O)N(C)[C@@H](CC(C)C)C(=O)N(C)[C@@H](CC(C)C)C(=O)N(C)[C@@H](C(C)C)C(=O)N1C`, the EC50 reads like this: under setting [1], 90 nM; under setting [4], 40 nM.

Turning to `C/C=C/C[C@@H](C)[C@@H](O)[C@H]1C(=O)N[C@@H](CC)C(=O)N(C)[C@@H](CSCCN(CC)CC)C(=O)N(C)[C@@H](CC(C)(C)O)C(=O)N[C@@H](C(C)C)C(=O)N(C)[C@@H](CC(C)C)C(=O)N[C@@H](C)C(=O)N[C@H](C)C(=O)N(C)[C@@H](CC(C)C)C(=O)N(C)[C@@H](CC(C)C)C(=O)N(C)[C@@H](C(C)C)C(=O)N1C` (single isomer, unassigned; isomer a), the EC50 under setting [5] was found to be 2120 nM.

With `C/C=C/C[C@@H](C)[C@@H](O)[C@H]1C(=O)N[C@@H](CC)C(=O)N(C)[C@H](CSCCN(CC)CC)C(=O)N(C)[C@@H](CC(C)C)C(=O)N[C@@H](C(C)C)C(=O)N(C)[C@@H](CC(C)C)C(=O)N[C@@H](C)C(=O)N[C@H](C)C(=O)N(C)[C@@H](CC(C)C)C(=O)N(C)[C@@H](CC(C)C)C(=O)N(C)[C@@H](C(C)C)C(=O)N1C` (single isomer, unassigned; isomer b) [[(S)-(2-(N,N-Diethylamino)ethylthio)methyl-Sar]-3-cyclosporin (isomer B)], under setting [1], the EC50 stood at 160 nM.

For the compound `C/C=C/C[C@@H](C)[C@@H](O)[C@H]1C(=O)N[C@@H](CC)C(=O)N(C)[C@@H](SCCN(CC)CC)C(=O)N(C)[C@@H](C(C)C)C(=O)N[C@@H](C(C)C)C(=O)N(C)[C@@H](CC(C)C)C(=O)N[C@@H](C)C(=O)N[C@H](C)C(=O)N(C)[C@@H](CC(C)C)C(=O)N(C)[C@@H](CC(C)C)C(=O)N(C)[C@@H](C(C)C)C(=O)N1C` [(S)-2-(N,N-Diethylamino)ethylthio-Sar]-3-[N-MeVal]-4-cyclosporin] (cyclo(A[dA][NMeL][NMeL][NMeV][MeBmt][Abu][X8][NMeV]V[NMeL])), the EC50 under setting [2] amounted to 40 nM.

Regarding `C/C=C/C[C@@H](C)[C@@H](O)[C@H]1C(=O)N[C@@H](CC)C(=O)N(C)[C@H](COCCN(C)C)C(=O)N(C)[C@@H](CC(C)(C)OC)C(=O)N[C@@H](C(C)C)C(=O)N(C)[C@@H](CC(C)C)C(=O)N[C@@H](C)C(=O)N[C@H](C)C(=O)N(C)[C@@H](CC(C)C)C(=O)N(C)[C@@H](CC(C)C)C(=O)N(C)[C@@H](C(C)C)C(=O)N1C`, the EC50 under setting [1] came out at 150 nM.

Regarding `CC=CCC(C)C(O)C1C(=O)NC(CC)C(=O)N(C)C(COCCCN(CC)CC)C(=O)N(C)C(CC(C)(C)OC)C(=O)NC(C(C)C)C(=O)N(C)C(CC(C)C)C(=O)NC(C)C(=O)NC(C)C(=O)N(C)C(CC(C)C)C(=O)N(C)C(CC(C)C)C(=O)N(C)C(C(C)C)C(=O)N1C` (stereo not drawn), the concentration for a half-maximal effect (EC50) under setting [1] was found to be 100 nM.

As to `CC=CCC(C)C(O)C1C(=O)NC(CC)C(=O)N(C)C(CSCCCCOCCN(CC)CC)C(=O)N(C)C(CC(C)(C)O)C(=O)NC(C(C)C)C(=O)N(C)C(CC(C)C)C(=O)NC(C)C(=O)NC(C)C(=O)N(C)C(CC(C)C)C(=O)N(C)C(CC(C)C)C(=O)N(C)C(C(C)C)C(=O)N1C` (stereo not drawn), the EC50 under setting [4] amounted to 50 nM.

For `CC=CCC(C)C(O)C1C(=O)NC(CC)C(=O)N(C)C(COCCN2CCOCC2)C(=O)N(C)C(CC(C)(C)OC)C(=O)NC(C(C)C)C(=O)N(C)C(CC(C)C)C(=O)NC(C)C(=O)NC(C)C(=O)N(C)C(CC(C)C)C(=O)N(C)C(CC(C)C)C(=O)N(C)C(C(C)C)C(=O)N1C` [[(R)-(2-(N-Morpholino)ethoxy)methyl-Sar]-3-[(γ-methoxy)-N-MeLeu]-4-cyclosporin], the EC50 under setting [1] is 150 nM.

As to `C/C=C/C[C@@H](C)[C@@H](O)[C@H]1C(=O)N[C@@H](CC)C(=O)N(C)[C@H](COCCN(CC)CC)C(=O)N(C)[C@@H](CC(C)(C)OC)C(=O)N[C@@H](C(C)C)C(=O)N(C)[C@@H](CC(C)C)C(=O)N[C@@H](C)C(=O)N[C@H](C)C(=O)N(C)[C@@H](CC(C)C)C(=O)N(C)[C@@H](CC(C)C)C(=O)N(C)[C@@H](C(C)C)C(=O)N1C`, the EC50 under setting [6] was found to be 20 nM.

`CC=CCC(C)C(O)C1C(=O)NC(CC)C(=O)N(C)C(CSCCCN2CCSCC2)C(=O)N(C)C(CC(C)(C)O)C(=O)NC(C(C)C)C(=O)N(C)C(CC(C)C)C(=O)NC(C)C(=O)NC(C)C(=O)N(C)C(CC(C)C)C(=O)N(C)C(CC(C)C)C(=O)N(C)C(C(C)C)C(=O)N1C` (stereo not drawn): under setting [4], the EC50 stood at 50 nM.

On to `CC=CCC(C)C(O)C1C(=O)NC(CC)C(=O)N(C)C(CSCCCN2CCN(CCC)CC2)C(=O)N(C)C(CC(C)(C)O)C(=O)NC(C(C)C)C(=O)N(C)C(CC(C)C)C(=O)NC(C)C(=O)NC(C)C(=O)N(C)C(CC(C)C)C(=O)N(C)C(CC(C)C)C(=O)N(C)C(C(C)C)C(=O)N1C` (stereo not drawn), for which the EC50 under setting [4] came to 50 nM.

For `C/C=C/C[C@@H](C)[C@@H](O)[C@H]1C(=O)N[C@@H](CC)C(=O)N(C)[C@H](CSCCCN(C)C)C(=O)N(C)[C@@H](CC(C)(C)O)C(=O)N[C@@H](C(C)C)C(=O)N(C)[C@@H](CC(C)C)C(=O)N[C@@H](C)C(=O)N[C@H](C)C(=O)N(C)[C@@H](CC(C)C)C(=O)N(C)[C@@H](CC(C)C)C(=O)N(C)[C@@H](C(C)C)C(=O)N1C`, under setting [6], the EC50 amounted to 50 nM.

As for `C/C=C/C[C@@H](C)[C@@H](O)[C@H]1C(=O)N[C@@H](CC)C(=O)N(C)[C@H](CSCCCN(CC(C)C)CC(C)C)C(=O)N(C)[C@@H](CC(C)(C)O)C(=O)N[C@@H](C(C)C)C(=O)N(C)[C@@H](CC(C)C)C(=O)N[C@@H](C)C(=O)N[C@H](C)C(=O)N(C)[C@@H](CC(C)C)C(=O)N(C)[C@@H](CC(C)C)C(=O)N(C)[C@@H](C(C)C)C(=O)N1C`, under setting [4], the concentration giving a half-maximal response (EC50) came out at 40 nM.

`C/C=C/C[C@@H](C)[C@@H](O)[C@H]1C(=O)N[C@@H](CC)C(=O)N(C)[C@H](CSCCN(C)C)C(=O)N(C)[C@@H](CC(C)(C)O)C(=O)N[C@@H](C(C)C)C(=O)N(C)[C@@H](CC(C)C)C(=O)N[C@@H](C)C(=O)N[C@H](C)C(=O)N(C)[C@@H](CC(C)C)C(=O)N(C)[C@@H](CC(C)C)C(=O)N(C)[C@@H](C(C)C)C(=O)N1C` (single isomer, unassigned; isomer b): the EC50 under setting [1] was found to be 130 nM.

In the case of `CC=CCC(C)C(O)C1C(=O)NC(CC)C(=O)N(C)C(SCCCN2CCOCC2)C(=O)N(C)C(CC(C)(C)OCSC)C(=O)NC(C(C)C)C(=O)N(C)C(CC(C)C)C(=O)NC(C)C(=O)NC(C)C(=O)N(C)C(CC(C)C)C(=O)N(C)C(CC(C)C)C(=O)N(C)C(C(C)C)C(=O)N1C` (stereo not drawn) (cyclo([X3][Abu][X7][X5]V[NMeL]AA[NMeL][NMeL][NMeV]); configuration not given here), the half-maximal effective concentration (EC50) under setting [3] turned out to be 160 nM.

As for `CCCCC(C)C(O)C1C(=O)NC(CC)C(=O)N(C)CC(=O)N(C)C(CC(C)(C)OC)C(=O)NC(C(C)C)C(=O)N(C)C(CC(C)C)C(=O)NC(C)C(=O)NC(C)C(=O)N(C)C(CC(C)C)C(=O)N(C)C(CC(C)C)C(=O)N(C)C(C(C)C)C(=O)N1C` (stereo not drawn) [[(γ-Methoxy)-N-MeLeu]-4-dihydrocyclosporin], under setting [3], the EC50 came to 350 nM.

Regarding `C/C=C/C[C@@H](C)[C@@H](O)[C@H]1C(=O)N[C@@H](CC)C(=O)N(C)[C@H](COCCCN2CCOCC2)C(=O)N(C)[C@@H](CC(C)(C)O)C(=O)N[C@@H](C(C)C)C(=O)N(C)[C@@H](CC(C)C)C(=O)N[C@@H](C)C(=O)N[C@H](C)C(=O)N(C)[C@@H](CC(C)C)C(=O)N(C)[C@@H](CC(C)C)C(=O)N(C)[C@@H](C(C)C)C(=O)N1C` [[(R)-(3-(N-Morpholino)propoxy)methyl-Sar]-3-[(γ-hydroxy)-NMeLeu]-4-cyclosporin], under setting [5], the EC50 was determined as 40 nM.

As for `CC=CCC(C)C(O)C1C(=O)NC(CC)C(=O)N(C)C(SCCN(CC)CC)C(=O)N(C)C(CC(C)(C)OCSC)C(=O)NC(C(C)C)C(=O)N(C)C(CC(C)C)C(=O)NC(C)C(=O)NC(C)C(=O)N(C)C(CC(C)C)C(=O)N(C)C(CC(C)C)C(=O)N(C)C(C(C)C)C(=O)N1C` (stereo not drawn) (cyclo([X3][Abu][X4][X5]V[NMeL]AA[NMeL][NMeL][NMeV]); configuration not given here), the EC50 under setting [3] is 130 nM.

For the compound `CC=CCC(C)C(O)C1C(=O)NC(CC)C(=O)N(C)C(SCCCN(CC)CC)C(=O)N(C)C(CC(C)(C)O)C(=O)NC(C(C)C)C(=O)N(C)C(CC(C)C)C(=O)NC(C)C(=O)NC(C)C(=O)N(C)C(CC(C)C)C(=O)N(C)C(CC(C)C)C(=O)N(C)C(C(C)C)C(=O)N1C` [(S)-3-(N,N-Diethylamino)propylthio-Sar]-3-[(γ-hydroxy)-N-MeLeu]-4-cyclosporin], under setting [3], the 50% effective concentration (EC50) was determined as 70 nM.

Take `CC=CCC(C)C(O)C1C(=O)NC(CC)C(=O)N(C)CC(=O)N(C)C(CC(C)(C)OC)C(=O)NC(C(C)C)C(=O)N(C)C(CC(C)C)C(=O)NC(C)C(=O)NC(C)C(=O)N(C)C(CC(C)C)C(=O)N(C)C(CC(C)C)C(=O)N(C)C(C(C)C)C(=O)N1C` (stereo not drawn) [[(γ-Methoxy)-N-MeLeu]-4-cyclosporin]: the EC50 under setting [3] was found to be 180 nM.
